Results as given in US11400059B2, “Treatment of pain and/or pain related symptoms associated with dysmenorrhea” (ALYRA BIOTECH PTY LTD, priority 2017, dated 2022).

Tests used:
[1] = tested on: spinal astrocytes (GFAP) in the dorsal horn of the spinal cord; assay: Spinal astrocyte activation (GFAP immunofluorescence) after intrauterine LPS; assay type: in vivo, mouse (Balb/C); settings: intrauterine, mixed with LPS 100 μg/kg on first day of estrus and alone the subsequent day, 3 estrous cycles; amitriptyline 28 μg/kg, TAK-242 36 μg/kg; vs LPS
Method: (§1) Group 1 included twelve mice with 20 μl endotoxin-free saline introduced to the uterus on the first day of estrus and the subsequent day over 3 consecutive estrous cycles. Group 2 included twelve mice with LPS (100 μg/kg) instilled in the uterus on the first day of estrus and saline injected on the subsequent day over 3 consecutive estrous cycles. Group 3 included twelve mice with LPS (100 μg/kg) mixed with amitriptyline (20 μl of a 100 μM solution, equivalent to 28 μg/kg) instilled in the uterus on the first day of estrus, and amitriptyline alone instilled on the subsequent day over 3 consecutive estrous cycles. Group 4 included 14 mice with LPS (100 μg/kg) mixed with TAK-242 (20 μl of a 100 μM solution, equivalent to 36 μg/kg) instilled on the first day of estrus and TAK-242 alone instilled on the subsequent day over 3 consecutive estrous cycles.
(§2) The investigation involved the instillation of 20 ul of an endotoxin-free 0.9% saline solution into the uterus of all animals on the first day of estrus and the subsequent day during 3 consecutive estrous cycles. Additional agents added to the saline were included according to the groups outlined below. Where LPS is administered, this was done on only 1 day per estrous cycle.
(§3) Where amitriptyline or TAK-242 was administered, this is on both the first day of estrus and the subsequent day.
(§4) The spinal cord was assessed using immunohistochemistry techniques across levels T10, T11, T12, T13, L1, L2, L3, L4, L5, L6, S1 and S2 for Groups 1 and 2, where T represents the thoracic segment of the spinal cord, L represents the lumbar segment of the spinal cord and S represents the sacral segment of the spinal cord.
(§5) The spinal cord was assessed using immunohistochemistry techniques across levels T12, T13, L1, L2, L3, L4, L5, L6, S and S2 for Groups 3 and 4, where T represents the thoracic segment of the spinal cord, L represents the lumbar segment of the spinal cord and S represents the sacral segment of the spinal cord. […]

Human Dectin-1a = biological target: T1, Human Dectin-1a (Homo sapiens, UniProt Q9BXN2); assay: Human CLR antagonist screening, NF-κB SEAP reporter in HEK293 cells; assay type: cell-based; settings: antagonist mode, Ami 1 μM
T1 construct: expressed in transfected cells; host or cells: HEK293
T1 sequence (Q9BXN2 1-247): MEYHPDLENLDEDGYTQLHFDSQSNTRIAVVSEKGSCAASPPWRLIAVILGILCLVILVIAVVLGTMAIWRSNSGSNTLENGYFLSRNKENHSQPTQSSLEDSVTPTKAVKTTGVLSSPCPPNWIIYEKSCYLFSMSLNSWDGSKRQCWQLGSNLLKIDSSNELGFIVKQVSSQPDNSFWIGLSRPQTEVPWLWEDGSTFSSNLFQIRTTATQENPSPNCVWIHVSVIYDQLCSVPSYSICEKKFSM
Method: Toll-Like Receptor (TLR), NOD-Like Receptor (NLR) and C-Type Lectin Receptor (CLR) stimulation were tested by assessing NF-κB activation in HEK293 cells expressing a given TLR, NLR or CLR. The activity of the test articles was tested at one concentration and compared to control ligands. These steps were performed in triplicate. hDectin-1a and hDectin-1b: WGP Soluble (0-glucan from S. cerevisiae) at 10 ng/mL Antagonist: 5 ng/mL. Curdlan at 100 μg/mL. Antagonist: 100 μg/mL. Zymosan Depleted (hot alkali treated S. cerevisiae) at 5 μg/mL Antagonist: 3 μg/mL. In a 96-well plate (200 μL total volume) containing the appropriate cells (50,000-75,000 cells/well), 20 μL of the test article or the positive control ligand was added to the wells. For the antagonist assay, the test article was incubated with the cells, at 37° C. with 5% CO2, for 30 minutes prior to the addition of the positive control ligand to the wells. The media added to the wells was designed for the detection of NF-κB induced SEAP expression. After a 16-24 hr incubation the optical density (OD) was read at 650 nm on a Molecular Devices SpectraMax 340PC absorbance detector. Fold induction (ratio of average induced value to average non-induced value) was determined for each TLR, NOD1, NOD2, Dectin-1a, Dectin-1b.

[2] = tested on: spinal microglia (Iba1) in the dorsal horn of the spinal cord; assay: Spinal microglial activation (Iba1 immunofluorescence) after intrauterine LPS; assay type: in vivo, mouse (Balb/C); settings: intrauterine, mixed with LPS 100 μg/kg on first day of estrus and alone the subsequent day, 3 estrous cycles; amitriptyline 28 μg/kg, TAK-242 36 μg/kg; vs LPS
Method: as §1, §2, §3, §4, §5

HEK293/Null = assay: Antagonist screening on RIG-I−/MDA-5− control cell line stimulated with hIFNα; assay type: cell-based; settings: stimulated with recombinant hIFNα at 100 IU/mL
Method: RIG-I and MDA-5 stimulation were tested by assessing IRF3 activation in HEK293 cells expressing human RIG-I or MDA-5 genes. The activity of the test articles was tested on human RIG-I and MDA-5 expressing cells as a potential agonist or antagonist. The test articles were evaluated at one concentration and compared to control ligands. This step was performed in triplicate. The results are provided as Relative Luminescence Units (RLUs).
RIG-I^−/MDA-5^− Cell Lines: HEK293/Null: Control for human RIG-I and MDA-5 Poly(I:C)HMW/LyoVec at 1 μg/mL. Antagonist: 500 ng/mL 5′ppp-dsRNA/LyoVec at 1 μg/mL. Antagonist: 500 ng/mL hIFNα at 1000 IU/mL. Antagonist: 100 IU/mL.
In a 96-well plate (200 μL total volume) containing the appropriate cells (25,000-50,000 cells/well), 20 μL of the test article or of the positive control ligand was added to the wells. For the antagonist assay, the test article was incubated with the cells, at 37° C. with 5% CO2, for 30 minutes prior to the addition of the positive control ligand to the wells. After 20 hour incubation, activation of the IRF pathway was monitored using a luciferase detection assay. Luciferase activity was assayed in triplicate from the supernatant of the induced cells, and the relative luminescence units (RLUs) are detected by a Promega GloMax Luminometer.

CN(C)CCC=C1c2ccccc2CCc2ccccc21 [Amitriptyline]
astrocytic reactivity (GFAP staining), impact of intrauterine LPS at multiple levels of the spinal cord [1]: reduced astrocytic reactivity to below basal levels
Fold Induction (Human Dectin-1a; +Curdlan 100 μg/mL, No Sample 5, Control− 1): slight inhibitory effect
Fold Induction (Human Dectin-1a; +Curdlan 100 μg/mL, No Sample 5, Control− 1, listed as Ami): 4
Fold Induction (Human Dectin-1a; +WGP Soluble 5 ng/mL, No Sample 8, Control− 1): 8
Fold Induction (Human Dectin-1a; +Zymosan Depleted 3 μg/mL, No Sample 6, Control− 1): slight inhibitory effect
Fold Induction (Human Dectin-1a; +Zymosan Depleted 3 μg/mL, No Sample 6, Control− 1, listed as Ami): 4
microglial reactivity (Iba1 staining), impact of intrauterine LPS at multiple levels of the spinal cord [2]: reduced microglial reactivity to basal levels
effect on RIG-I−/MDA-5− control cell line (HEK293/Null): inhibitory effect
